# Data from patent publication US20110100371A1, “ANTI-VIRAL PROPERTIES OF ZOSTERIC ACID AND RELATED MOLECULES” (FLORIDA GULF COAST UNIVERSITY, priority 2007, published 2011).
# “Also recorded” adds a separate entry of the source. Read-outs that look alike come from different tables or passages of the source.
# How the values were obtained:
# DENV-2 strain NG-2 = experiment: Focus forming unit (FFU) reduction assay, DENV-2; type: cell-based, dengue virus
# Protocol: (§1) DENV-1 strain HI-1, DENV-2 strain NG-2, DENV-3 strain H-78, and DENV-4 strain H-42 were obtained from R. Tesh at the World Health Organization Arbovirus Reference Laboratory at the University of Texas at Galveston. Viruses were propagated in the […] kidney epithelial cell line, LLCMK-2, a gift of K. Olsen at Colorado State University. LLCMK-2 cells were grown in Dulbecco's modified eagle medium (DMEM) with 10% (v/v) fetal bovine serum (FBS), 2 mM Glutamax, 100 U/ml penicillin G, 100 μg/ml streptomycin and 0.25 μg/ml amphotericin B, at 37° C. with 5% (v/v) CO2.
# LLCMK-2 target cells were seeded at a density of 1×10^5 cells in each well of a 6-well plate 24 h prior to infection. Approximately 200 FFU of virus were incubated with or without chemistries in serum-free DMEM for 1 h at rt. Virus/chemistry or virus/control mixtures were allowed to infect confluent target cell monolayers for 1 h at 37° C., with rocking every 15 m, after which time the medium was aspirated and overlaid with fresh DMEM/10% (v/v) FBS containing 0.85% (w/v) Sea-Plaque Agarose (Cambrex Bio Science, Rockland, Me.). Cells with agar overlays were incubated at 4° C. for 20 m to set the agar. Infected cells were then incubated at 37° C. with 5% CO2 for 3 days (DENV-1, 3 and 4) or 5 days (DENV-2). Infected cultures were fixed with 10% formalin overnight at 4° C., permeabilized with 70% (v/v) ethanol for 20 m, and rinsed with PBS prior to immunostaining. Virus foci were detected using supernatant from mouse anti-DENV hybridoma E60 (obtained from M. Diamond at Washington University) followed by horseradish peroxidase-conjugated goat anti-mouse immunoglobulin (Pierce, Rockford, Ill.) and developed using AEC chromogen substrate (Dako, Carpinteria, Calif.). Results were expressed as the average of at least two independent trials with three replicates in each trial.
# DENV-1,2,3 and 4 = experiment: Focus forming unit (FFU) reduction assay, several dengue strains stated together; type: cell-based; settings: Dengue virus
# Protocol: as §1
# (§2) LLCMK-2 target cells were seeded at a density of 1×10^5 cells in each well of a 6-well plate 24 h prior to infection. Approximately 200 FFU of virus were incubated with or without chemistries in serum-free DMEM for 1 h at rt. […] Virus foci were detected using supernatant from mouse anti-DENV hybridoma E60 (obtained from M. Diamond at Washington University) followed by horseradish peroxidase-conjugated goat anti-mouse immunoglobulin (Pierce, Rockford, Ill.) and developed using AEC chromogen substrate (Dako, Carpinteria, Calif.). Results were expressed as the average of at least two independent trials with three replicates in each trial.
# DENV-3 strain H-78 = experiment: Focus forming unit (FFU) reduction assay, DENV-3; type: cell-based; settings: Dengue virus, DENV3, LLC-MK2; DENV-3 (D-3), LLCMK-2 target cells; read-out: IC50 μM ± sem
# Protocol: as §1, §2
# DENV-2 [1] = experiment: Post-entry focus-forming assay; type: cell-based, dengue virus; settings: DENV-2, chemistry added post-entry 1 hr at 37° C.
# Protocol: To determine if the observed inhibitory effect was due to interference with post-entry steps in the viral life cycle, approximately 200 FFU of DENV-2 without CF 238 was allowed to bind and enter target cells for 1 h at 37° C. as described for the focus forming assay. Unbound virus was then removed by rinsing with PBS and CF 238 was added to the cells post-entry for 1 hr at 37° C. Cultures were washed again in PBS and agarose overlays, incubation, and immunological detection was conducted as described for the focus forming assay.
# DENV-1 strain HI-1 = experiment: Focus forming unit (FFU) reduction assay, DENV-1; type: cell-based; settings: Dengue virus, DENV1, LLC-MK2; DENV-1 (D-1), LLCMK-2 target cells; read-out: IC50 μM ± sem
# Protocol: as §1, §2
# DENV-4 strain H-42 = experiment: Focus forming unit (FFU) reduction assay, DENV-4; type: cell-based; settings: Dengue virus, DENV4, LLC-MK2; DENV-4 (D-4), LLCMK-2 target cells; read-out: IC50 μM ± sem
# Protocol: as §1, §2
# DENV-2 [2] = experiment: Pre-binding focus-forming assay; type: cell-based, dengue virus; settings: DENV-2, chemistry incubated with target cells 1 h at 4° C., rinsed before infection
# Protocol: To determine if the observed inhibitory effect was due to interference caused by modifications to the target cell surface, CF 238 was incubated with the target cells for 1 h at 4° C., the cells were rinsed with PBS, and approximately 200 FFU of DENV-2 was allowed to infect the cells at 4° C. Agarose overlays, incubation, and immunological detection were conducted as described for the focus forming assay.
# DENV-2 [3] = experiment: Post-binding focus-forming assay; type: cell-based, dengue virus; settings: DENV-2 bound at 4° C., then chemistry added 1 h at 4° C.
# Protocol: To determine if the observed inhibitory effect was due to interference with interactions that occur pre-binding versus post-binding of virions to the target cells, approximately 200 FFU of DENV-2 was allowed to bind to target LLCMK-2 cells for 1 h at 4° C. to allow binding, but prevent internalization. Unbound virus was washed off with PBS at 4° C., then CF 238 was added and incubated at 4° C. for 1 h. Cultures were washed again in 4° C. PBS and warmed to 37° C. Agarose overlays, incubation, and immunological detection were conducted as described for the focus forming assay.
# DENV-2 [4] = experiment: qRT-PCR virus binding assay; type: cell-based, dengue virus; settings: DENV-2 pre-incubated 45 m at 4° C., infection of LLCMK-2 45 m at 4° C.
# Protocol: Infection of LLCMK-2 target cells in six well plates was performed in duplicate using 10^5 FFU of DENV-2 that had been pre-incubated for 45 m at 4° C. with CF 238 or pooled heterotypic anti-DENY human serum. After a 45 m infection at 4° C., infected monolayers were washed with PBS and harvested with a cell scraper, added to a 1.5 ml microfuge tube containing 350 μl of AR-200 silicone oil (Sigma-Aldrich, St. Louis, Mo.) mixed with 150 μl of silicone fluid (Thomas, Swedesboro, N.J.), and spun at 14,000 rpm in a microfuge for 1 m to separate the unbound virus from the cell-bound virus in the pellets. The tubes were then submerged in liquid nitrogen for 30 s to freeze the contents. The cell pellets with bound virus were recovered by clipping off the bottoms of the tubes with small wire clippers into 15 ml conical tubes. Viral RNA was extracted from the cell pellets using the Qiagen Viral RNA Extraction kit (Qiagen, Chatsworth, Calif.).
# Quantitative real time reverse transcription PCR (qRT-PCR) was performed on the extracted RNA using the Quantitect Sybr Green RT-PCR kit (Qiagen inc., Chatsworth, Calif.), following the manufacturer's specifications and amplification protocols, using dengue-specific primers: (Den2F: […], Den2R: […]). […]
# [5] = Dengue virus, DENV2, LLC-MK2, read-out: IC50 μM ± sem
# [6] = Dengue virus, DENV2, read-out: maximum inhibition
# [7] = Dengue virus, DENV2, DENV-2, rounded statement in text, read-out: IC50 (approximate)
smiles,measurement,setting,value
CCN(CCCN(CC)C(=O)c1cccc(O)c1)C(=O)c1cccc(O)c1 [CF 490],IC50,DENV-2 strain NG-2; [5],2380 µM
same,inhibition at 3000 µM,DENV-2 strain NG-2; [6],84%
same,IC50,DENV-2 strain NG-2; [7],~2000 µM
CN(CCCNC(=O)c1ccc(O)cc1)CCCNC(=O)c1ccc(O)cc1 [CF 285],IC50,DENV-2 strain NG-2; [5],2520 µM
same,inhibition at 3000 µM,DENV-2 strain NG-2; [6],63%
same,IC50,DENV-2 strain NG-2; [7],~2000 µM
CN(CCCNC(=O)c1ccc(O)cc1)CCCNC(=O)c1ccc2cc(O)ccc2c1 [CF 290],IC50,DENV-2 strain NG-2; [5],294 ± 42 µM
same,inhibition at 367 µM,DENV-2 strain NG-2; [6],60%
"O=C(O)/C=C/c1ccc(OS(=O)(=O)O)cc1 [ZA, p-sulfoxy-cinnamic acid]",inhibition at 5000 µM,"DENV-2 strain NG-2; Dengue virus, DENV2",99%
same,IC50,DENV-2 strain NG-2; [5],2380 µM
same,IC50,DENV-2 strain NG-2; [7],~2000 µM
CCN(CCOC(=O)/C=C/c1ccc(O)cc1)Cc1cc(Cl)ccc1O [CF 238],inhibition at 84 µM,"DENV-1,2,3 and 4; DENV1, AT84, all dengue strains, at 84 μM",86 to 100%
same,IC50,"DENV-1,2,3 and 4; DENV1, range over DENV-1, 3 and 4, read-out: IC50 against the other three DENV types",14 to 47 µM
same,inhibition at 84 µM,"DENV-2 strain NG-2; Dengue virus, DENV2, AT84",86%
same,IC50,DENV-2 strain NG-2; [5],46 ± 4 µM
same,activity relative to zosteric acid,DENV-2 strain NG-2; anti-DENV inhibitory activity compared with the natural product,~100 times
same,IC50,DENV-3 strain H-78,14 ± 2 µM
same,inhibition when added after viral entry,DENV-2 [1],no evidence of inhibition
same,IC50,DENV-1 strain HI-1,24 ± 6 µM
same,IC50,DENV-4 strain H-42,47 ± 5 µM
same,inhibition when target cells treated prior to infection,DENV-2 [2],no evidence of inhibition; also recorded: does not inhibit virus infection when pre-incubated with target cells
same,inhibition of virus already bound to target cells,DENV-2 [3],No inhibition of infection was observed
same,virus binding/attachment to target cells (qRT-PCR signal),DENV-2 [4],did not inhibit virus binding; also recorded: enhances virus:cell binding
O=C(c1ccc(O)cc1)N1CCCN(C(=O)c2ccc3cc(O)ccc3c2)CC1 [CF 296],dose-dependent inhibition against DENV-2,"DENV-2 strain NG-2; DENV-2, result in words",did not show evidence of clear dose-dependent inhibition
